Data: patent US20070254894A1, “Novel small molecules with selective cytotoxicity against human microvascular endothelial cell proliferation” (priority 2006, published 2007)
Where two headings read alike, the source gives them in different places.

Assays:
[1] = tested on: Primary Human Dermal Fibroblasts; experiment: in vitro; conditions: read-out: D. Fibroblast LC50; 6 days, Alamar blue
Experimental: In parallel with the VEGF and FGF screens, a normal cell toxicity assay was run. Primary Human Dermal Fibroblasts (Clonetics) were plated at 5000 cells/well. After 24 hours various concentrations of test compounds, were added in duplicate plates and 10% Tween-20 was added to four control wells to represent total death. At the same time a T-zero plate was generated. The plates were returned to the carbon dioxide incubator and on day 6 Alamar blue was added and the plates read after 3 hours.
Using a T-zero plate allows the observation of compounds that cause the cells to become static as well as inhibit growth.

[2] = tested on: HMVEC cells stimulated with b-FGF; experiment: b-FGF driven HMVEC proliferation screen; assay type: cell-based
Experimental: (§1) HMVEC cells were plated on collagen-coated plates at 2500 cells/well for 24 hours. Various concentrations of test compounds were then added to duplicate plates. […] Anti-FGF antibody (final concentration of 5 μg/mL) was added to four control wells as a standard inhibitor. At the same time the compounds were added, a T-zero plate was generated (Alamar blue was added to a plate and read after three hours). The plates with the compounds were incubated for one hour at 37° C., 5% carbon dioxide. At this point, b-FGF was added (final concentration of 2.5 ng/mL). Tween-20 (10 μL) was added to four additional control wells to represent total death and the plates were returned to the carbon dioxide incubator for 6 days.

[3] = tested on: HMVEC cells stimulated with VEGF 165; experiment: VEGF driven HMVEC proliferation screen; assay type: cell-based
Experimental: as §1
The assay was run identically using VEGF in place of b-FGF. The final concentration of VEGF 165, in this mode, was 10 ng/mL. The control inhibitor was anti-VEGF antibody (final concentration of […]). All other conditions were the same.

[4] = b-FGF 2.5 ng/mL, 6 days, Alamar blue, read-out: b-FGF LC50
[5] = VEGF 165 10 ng/mL, 6 days, Alamar blue, read-out: VEGF LC50
[6] = Homo sapiens, HMVEC, 144 h, b-FGF 2.5 ng/mL, 6 days, Alamar blue, read-out: b-FGF LC50
[7] = Homo sapiens, HMVEC, 144 h, VEGF 165 10 ng/mL, 6 days, Alamar blue, read-out: VEGF LC50

Compound	CC50 [1] [nM]	CC50 [2] [nM]	CC50 [3] [nM]	CC50 [2, 4] [nM]	CC50 [3, 5] [nM]	CC50 [2, 6] [nM]	CC50 [3, 7] [nM]
O=C(Nc1cc(C(F)(F)F)cc2cccnc12)c1ccccn1 [Compound 5]	> 10000	120	160	–	–	–	–
CN1CCC[C@H]1C(=O)Nc1cccc2cccnc12 [Compound 58, (S)-1-methyl-pyrrolidine-2-carboxylic acid quinolin-8-ylamide]	> 10000	–	–	170	190	–	–
O=C(Nc1cc(Cl)c(Cl)c2cccnc12)c1ccccn1 [Compound 15]	> 10000	220	210	–	–	–	–
O=C(Nc1cccc2cccnc12)c1ncccc1OCCN1CCOCC1 [Compound 48]	–	1600	950	–	–	–	–
CCCOc1cccnc1C(=O)Nc1cccc2cccnc12 [Compound 23]	> 10000	210	180	–	–	–	–
COc1ccnc(C(=O)Nc2cccc3cccnc23)c1 [Compound 29]	> 10000	69	60	–	–	–	–
CN(C)c1c(NC(=O)c2ccccn2)ccc(Cl)c1Cl [Compound 91]	> 10000	2400	3500	–	–	–	–
CN(C)CCN(C)c1ccc(NC(=O)c2ccccn2)c2ncccc12 [Compound 21]	> 10000	–	–	2400	3700	–	–
CCN(C)c1c(NC(=O)c2ccccn2)ccc(Cl)c1Cl [Compound 92]	> 10000	7900	8200	–	–	–	–
O=C(Nc1cccc2cccnc12)c1cc(N2CCN(CCO)CC2)ccn1 [Compound 39]	> 10000	650	220	–	–	–	–
O=C(Nc1cccc2cccnc12)c1cc(N2CCCCC2)ccn1 [Compound 43]	> 10000	–	–	220	400	–	–
O=C(Nc1cccc2cccnc12)c1cc(N2CCSCC2)ccn1 [Compound 44]	> 10000	–	–	250	180	–	–
CN1CCN(c2ccc(NC(=O)c3ccccn3)c3ncccc23)CC1 [Compound 19]	> 10000	–	–	28	28	–	–
Cc1ccc(NC(=O)c2ccccn2)c2ncccc12 [Compound 14]	> 10000	170	130	–	–	–	–
O=S(=O)(Nc1cc(Cl)c(Cl)c2cccnc12)c1ccccn1 [Compound 73]	> 10000	1000	1100	–	–	–	–
Cc1cc(NC(=O)c2ccccn2)c2ncccc2c1C [Compound 17]	> 10000	130	160	–	–	–	–
Cc1cccnc1C(=O)Nc1cccc2cccnc12 [Compound 24]	> 10000	150	140	–	–	–	–
CC(C)N(C)c1ccccc1NC(=O)c1ccccn1 [Compound 83]	> 10000	6500	9600	–	–	–	–
CCN1CCN(c2ccnc(C(=O)Nc3cccc4cccnc34)c2)CC1 [Compound 41]	4200	18	17	–	–	–	–

Compound	CC50 [1] [nM]	CC50 [2] [nM]	CC50 [3] [nM]	CC50 [2, 4] [nM]	CC50 [3, 5] [nM]	CC50 [2, 6] [nM]	CC50 [3, 7] [nM]
Cc1ccc2cccc(NC(=O)c3ccccn3)c2n1 [Compound 6]	> 10000	3200	3900	–	–	–	–
O=C(Nc1cccc2cccnc12)c1ccc(-c2ccccc2)cn1 [Compound 33]	> 10000	–	–	6100	4700	–	–
O=C(Nc1cc(N2CCOCC2)cc2cccnc12)c1ccccn1 [Compound 13]	> 10000	26	25	–	–	–	–
CN1CCCN(c2ccnc(C(=O)Nc3cccc4cccnc34)c2)CC1 [Compound 38]	> 10000	25	26	–	–	–	–
Cc1cc(NC(=O)c2ccccn2)c2ncccc2c1 [Compound 11]	> 10000	68	73	–	–	–	–
CCCN(C)c1ccccc1NC(=O)c1ccccn1 [Compound 82]	> 10000	1300	2000	–	–	–	–
O=C(Nc1ccc(Oc2ccccc2)c2cccnc12)c1ccccn1 [Compound 12]	> 10000	–	–	1000	1000	–	–
COc1cc(NC(=O)c2cc(N3CCN(C)CC3)ccn2)c2ncccc2c1 [Compound 54]	> 10000	–	–	20	15	–	–
O=C(Nc1cccc2cccnc12)c1cc(NCCN2CCOCC2)ccn1 [Compound 35]	> 10000	160	120	–	–	–	–
O=C(Nc1cc(Cl)cc2cccnc12)c1ccccn1 [Compound 4]	> 10000	110	120	–	–	–	–
O=C(Nc1cccc2cccnc12)c1cc(SCc2ccccc2)ccn1 [Compound 45]	> 10000	–	–	190	61	–	–
CCN(CC)c1ccccc1NC(=O)c1ccccn1 [Compound 84]	> 10000	1500	1600	–	–	–	–
O=C(Nc1cc(OCCN2CCOCC2)cc2cccnc12)c1ccccn1 [Compound 20]	–	31	30	–	–	–	–
COc1cc(NC(=O)c2ccccn2)c2ncccc2c1 [Compound 2]	3400	31	38	–	–	–	–
CN1CCN(c2ccnc(C(=O)Nc3cccc4cccnc34)c2)CC1 [Compound 34, 4-(4-methylpiperazin-1-yl)pyridine-2-carboxylic acid quinolin-8-ylamide]	> 10000	–	–	18	13	–	–
O=C(Nc1cccc2cccnc12)c1cc(N2CCN(Cc3ccccc3)CC2)ccn1 [Compound 36]	> 10000	–	–	900	840	–	–
O=C(Nc1cccc2cccnc12)c1cc(N2CCC(O)CC2)ccn1 [Compound 37]	> 10000	310	290	–	–	–	–
Cc1cccc(C(=O)Nc2cccc3cccnc23)n1 [Compound 25]	> 10000	2300	2500	–	–	–	–
CN(C)CCCOc1cccnc1C(=O)Nc1cccc2cccnc12 [Compound 49]	> 10000	–	–	2500	1700	–	–

Compound	CC50 [1] [nM]	CC50 [2] [nM]	CC50 [3] [nM]	CC50 [2, 4] [nM]	CC50 [3, 5] [nM]	CC50 [2, 6] [nM]	CC50 [3, 7] [nM]
CCN(C)c1ccccc1NC(=O)c1ccccn1 [Compound 81]	> 10000	500	620	–	–	–	–
CN(C)c1ccccc1NC(=O)c1ccccn1 [Compound 80]	> 10000	830	770	–	–	–	–
CCOc1cc(NC(=O)c2ccccn2)c2ncccc2c1 [Compound 8]	> 10000	81	96	–	–	–	–
O=C(Nc1cccc2cccnc12)c1cc(N2CCOCC2)ccn1 [Compound 30]	8000	26	22	–	–	–	–
O=C(Nc1cccc2cccnc12)c1cc(-c2ccccc2)ccn1 [Compound 27]	> 10000	–	–	950	640	–	–
CN1CCN(c2ccnc(C(=O)Nc3cccc4cccnc34)c2)CC1 [Compound 101]	> 10000	–	–	14	15	–	–
O=C(Nc1cc(-c2ccccc2)cc2cccnc12)c1ccccn1 [Compound 10]	> 10000	–	–	380	260	–	–
CCN(CCN(C)C)c1ccnc(C(=O)Nc2cccc3cccnc23)c1 [Compound 40]	7600	21	16	–	–	–	–
O=C(Nc1cccc2cccnc12)c1cc(N2CCC(N3CCCC3)CC2)ccn1 [Compound 42]	3600	–	–	33	42	–	–
O=C(Nc1cccc2cccnc12)c1ccccn1 [Compound 1]	–	61	65	–	–	–	–
COc1ccc(NC(=O)c2ccccn2)c2ncccc12 [Compound 3]	> 10000	–	–	110	120	–	–
O=C(Nc1cccc2cccnc12)c1ncccc1O [Compound 46]	> 10000	66	51	–	–	–	–
O=C(Nc1cc(OCCN2CCOCC2)cc2cccnc12)c1ccccn1 [Compound 99]	–	–	–	–	–	31	28
O=C(Nc1ccc(Cl)c2cccnc12)c1ccccn1 [Compound 18]	> 10000	200	170	–	–	–	–
Cc1ccc(NS(=O)(=O)c2ccccn2)c2ncccc12 [Compound 74]	> 10000	110	120	–	–	–	–
O=C(Nc1cccc2cccnc12)c1ncccc1OCCN1CCOCC1 [Compound 104]	–	–	–	–	–	1400	810
O=C(Nc1cccc2cccnc12)c1cccc(Br)n1 [Compound 26]	> 10000	120	86	–	–	–	–
O=C(Nc1cccc2nccnc12)c1ccccn1 [Compound 77]	> 10000	–	–	180	170	–	–
O=C(Nc1ccccc1N1CCCC1)c1ccccn1 [Compound 79]	> 10000	6500	8000	–	–	–	–
